Where two headings read alike, the source gives them in different places.
Test: PK of compound of Formula (Ia) after single subcutaneous dose of solution formulations in Wistar Han rats
Assay type: in vivo
Conditions: male, Wistar Han, rat, plasma, sc, 50 mg/kg, mean ± SD
Procedure: Formulations containing the compound of Formula (Ia), or a pharmaceutically acceptable salt thereof, were prepared as solutions and optionally administered subcutaneously or intramuscularly to rats, rabbits, and/or dogs.
(§1) A solution of about 400 mg/mL of the compound of Formula (Ia) having 19.14 w/w % water, 40.66 w/w % PEG 300, 35.20 w/w % of a sodium salt of a compound of Formula (Ia), and 5.00% ethanol was prepared. The solution was administered subcutaneously to male Wistar Han rats at a dose level of about 50 mg/kg and dose volume of 0.125 mL/kg and the pharmacokinetic (PK) profile was determined.
as §1, with “500” for “400”, “16.64” for “19.14”, “35.36” for “40.66”, “43.00” for “35.20”, “0.1” for “0.125”
(§2) A solution of about 400 mg/mL of the compound of Formula (Ia) having 17.00 w/w % water, 36.40 w/w % PEG 300, 35.20 w/w % of a sodium salt of a compound of Formula (Ia), 5.00 w/w % ethanol, and 6.40 w/w % poloxamer 188 was prepared. The solution was administered subcutaneously to male beagle dogs at a dose level of about 12 mg/kg and male Wistar Han rats at a dose level of about 50 mg/kg. The pharmacokinetic profiles were determined, and the results for dogs are summarized in Table and Table, while the results for rats are summarized in Table and Table below.
as §2, with “500” for “400”, “14.06” for “17.00”, “30.12” for “36.40”
A solution of about 300 mg/mL of the compound of Formula (Ia) having 23.33 w/w % water, 48.99 w/w % PEG 300, 26.47 w/w % of a sodium salt of a compound of Formula (Ia), and 1.21 w/w % poloxamer 188 was prepared. The solution was administered subcutaneously to male beagle dogs at a dose level of about 6 mg/kg and male Wistar Han rats at a dose level of about 50 mg/kg. The pharmacokinetic profiles were determined, and the results for dogs are summarized in Table and Table, while the results for rats are summarized in Table and Table below.
as §2, with “18.80” for “17.00”, “40.25” for “36.40”, “34.38” for “35.20”, “1.57” for “6.40”
as §2, with “500” for “400”, “16.29” for “17.00”, “34.88” for “36.40”, “41.92” for “35.20”, “1.91” for “6.40”
A solution of about 400 mg/mL of the compound of Formula (Ia) having 20.90 w/w % water, 44.72 w/w % PEG 300, and 34.38 w/w % of a sodium salt of a compound of Formula (Ia) was prepared. […]

AUC(0-t) (male Wistar Han rats, single SC 50 mg/kg, 400 mg/mL solution Y (water, PEG 300), n = 4, read-out: AUC0-336 h): 31.6 ± 10.9 µM·h | AUC(0-t) (male Wistar Han rats, single SC 50 mg/kg, 400 mg/mL solution Y (water, PEG 300), n = 4, read-out: AUC0-672 h): 74.9 ± 33.7 µM·h | AUC(0-t) (male Wistar Han rats, single SC 50 mg/kg, 400 mg/mL solution Y (water, PEG 300), n = 4, read-out: AUC0-1008 h): 128 ± 64 µM·h | AUC(0-t) (male Wistar Han rats, single SC 50 mg/kg, 400 mg/mL solution Y (water, PEG 300), n = 4, read-out: AUC0-1344 h): 182 ± 100 µM·h | AUC(0-t) (male Wistar Han rats, single SC 50 mg/kg, 400 mg/mL solution Y (water, PEG 300), n = 4, read-out: AUC0-1680 h): 230 ± 132 µM·h | AUC(0-t) (male Wistar Han rats, single SC 50 mg/kg, 400 mg/mL solution Y (water, PEG 300), n = 4, read-out: AUC0-2352 h): 312 ± 181 µM·h | AUC(0-t) (male Wistar Han rats, single SC 50 mg/kg, 400 mg/mL solution Y (water, PEG 300), n = 4, read-out: AUC0-3024 h): 389 ± 229 µM·h | AUC(0-t) (male Wistar Han rats, single SC 50 mg/kg, 400 mg/mL solution Y (water, PEG 300), n = 4, read-out: AUC0-3696 h): 454 ± 255 µM·h | AUC(0-t) (male Wistar Han rats, single SC 50 mg/kg, 400 mg/mL solution Z (3.13% poloxamer 188), n = 4, read-out: AUC0-24 h): 2.37 ± 1.6 µM·h | AUC(0-t) (male Wistar Han rats, single SC 50 mg/kg, 400 mg/mL solution Z (3.13% poloxamer 188), n = 4, read-out: AUC0-168 h): 23.9 ± 12.4 µM·h | AUC(0-t) (male Wistar Han rats, single SC 50 mg/kg, 400 mg/mL solution Z (3.13% poloxamer 188), n = 4, read-out: AUC0-336 h): 49.4 ± 25.4 µM·h | AUC(0-t) (male Wistar Han rats, single SC 50 mg/kg, 400 mg/mL solution Z (3.13% poloxamer 188), n = 4, read-out: AUC0-672 h): 106 ± 49 µM·h | AUC(0-t) (male Wistar Han rats, single SC 50 mg/kg, 400 mg/mL solution Z (3.13% poloxamer 188), n = 4, read-out: AUC0-1008 h): 163 ± 68 µM·h | AUC(0-t) (male Wistar Han rats, single SC 50 mg/kg, 400 mg/mL solution Z (3.13% poloxamer 188), n = 4, read-out: AUC0-1344 h): 214 ± 85 µM·h | AUC(0-t) (male Wistar Han rats, single SC 50 mg/kg, 400 mg/mL solution Z (3.13% poloxamer 188), n = 4, read-out: AUC0-1680 h): 259 ± 99 µM·h | AUC(0-t) (male Wistar Han rats, single SC 50 mg/kg, 400 mg/mL solution Z (3.13% poloxamer 188), n = 4, read-out: AUC0-2352 h): 344 ± 117 µM·h | AUC(0-t) (male Wistar Han rats, single SC 50 mg/kg, 400 mg/mL solution Z (3.13% poloxamer 188), n = 4, read-out: AUC0-3024 h): 435 ± 129 µM·h | AUC(0-t) (male Wistar Han rats, single SC 50 mg/kg, 400 mg/mL solution Z (3.13% poloxamer 188), n = 4, read-out: AUC0-3696 h): 544 ± 156 µM·h | AUC(0-t) (male Wistar Han rats, single SC 50 mg/kg, 500 mg/mL solution X (5.00% ethanol, 1.91% poloxamer 188), n = 3, read-out: AUC0-24 h): 2.82 ± 0.53 µM·h | AUC(0-t) (male Wistar Han rats, single SC 50 mg/kg, 500 mg/mL solution X (5.00% ethanol, 1.91% poloxamer 188), n = 3, read-out: AUC0-168 h): 30.1 ± 5.1 µM·h | AUC(0-t) (male Wistar Han rats, single SC 50 mg/kg, 500 mg/mL solution X (5.00% ethanol, 1.91% poloxamer 188), n = 3, read-out: AUC0-336 h): 64.5 ± 11.4 µM·h | AUC(0-t) (male Wistar Han rats, single SC 50 mg/kg, 500 mg/mL solution X (5.00% ethanol, 1.91% poloxamer 188), n = 3, read-out: AUC0-672 h): 152 ± 23 µM·h | AUC(0-t) (male Wistar Han rats, single SC 50 mg/kg, 500 mg/mL solution X (5.00% ethanol, 1.91% poloxamer 188), n = 3, read-out: AUC0-1008 h): 244 ± 29 µM·h | AUC(0-t) (male Wistar Han rats, single SC 50 mg/kg, 500 mg/mL solution X (5.00% ethanol, 1.91% poloxamer 188), n = 3, read-out: AUC0-1344 h): 329 ± 35 µM·h | AUC(0-t) (male Wistar Han rats, single SC 50 mg/kg, 500 mg/mL solution X (5.00% ethanol, 1.91% poloxamer 188), n = 3, read-out: AUC0-1680 h): 416 ± 47 µM·h | AUC(0-t) (male Wistar Han rats, single SC 50 mg/kg, 500 mg/mL solution X (5.00% ethanol, 1.91% poloxamer 188), n = 3, read-out: AUC0-2352 h): 549 ± 64 µM·h | AUC(0-t) (male Wistar Han rats, single SC 50 mg/kg, 500 mg/mL solution X (5.00% ethanol, 1.91% poloxamer 188), n = 3, read-out: AUC0-3024 h): 659 ± 80 µM·h | AUC(0-t) (male Wistar Han rats, single SC 50 mg/kg, 500 mg/mL solution X (5.00% ethanol, 1.91% poloxamer 188), n = 3, read-out: AUC0-3696 h): 761 ± 84 µM·h | AUC(0-t) (male Wistar Han rats, single SC 50 mg/kg, 500 mg/mL solution X (5.00% ethanol, 1.91% poloxamer 188), n = 3, read-out: AUC0-4704 h): 806 ± 83 µM·h | Cmax (n = 3 rats, SC 50 mg/kg, solution R, 400 mg/mL): 0.37 ± 0.065 µM | AUC(0-t) (n = 3 rats, SC 50 mg/kg, solution R, 400 mg/mL, read-out: AUC0-24h): 3.02 ± 0.65 µM·h | AUC(0-t) (n = 3 rats, SC 50 mg/kg, solution R, 400 mg/mL, read-out: AUC0-168h): 25.2 ± 5.3 µM·h | AUC(0-t) (n = 3 rats, SC 50 mg/kg, solution R, 400 mg/mL, read-out: AUC0-336h): 60.6 ± 8.3 µM·h | AUC(0-t) (n = 3 rats, SC 50 mg/kg, solution R, 400 mg/mL, read-out: AUC0-672h): 170 ± 5.4 µM·h | AUC(0-t) (n = 3 rats, SC 50 mg/kg, solution R, 400 mg/mL, read-out: AUC0-1008h): 287 ± 32 µM·h
Structure (SMILES): CC(C)(C#Cc1ccc(-c2ccc(Cl)c3c(NS(C)(=O)=O)nn(CC(F)(F)F)c23)c([C@H](Cc2cc(F)cc(F)c2)NC(=O)Cn2nc(C(F)(F)F)c3c2C(F)(F)[C@@H]2C[C@H]32)n1)S(C)(=O)=O [compound of Formula (Ia)]
